Test results as given in patent publication US20140094493A1, “Novel Ether Linked Compounds and Improved Treatments for Cardiac and Cardiovascular Disease” (priority 2011, published 2014).
Counter-ions that a name gives are not always drawn.

What was measured:
human beta2-adrenoceptor = target: T1, human beta2-adrenoceptor (Homo sapiens, UniProt P07550); experiment: 3H-CGP12177 whole-cell binding, beta2; conditions: 3H-CGP 12177 whole cell binding, CHO cells expressing human beta2-adrenoceptor, logarithmic value; for Kd: read-out: Beta 2 Log KD (converted)
T1 construct: expressed in transfected cells; host or cells: CHO cells
Method: (§1) Selectivity of ligands for the three beta-adrenoceptors was assessed by whole-cell binding studies using ^3H-CGP12177 in CHO cells expressing the human beta1, beta2 or beta3-adrenoceptors respectively essentially as described by Baker (2005; Br. J Pharmacol: 144, 317-22) Values shown are KD values determined as described by Baker (2005). KD represents the concentration of compound required to occupy 50% of the receptors in cells or tissues.
(§2) The selectivity of a ligand is given by the ratio of beta-1 to beta-2 KD. Accordingly a difference of one in the logarithmic values thereof represents a 10-fold selectivity, a difference of 2 represents 100-fold selectivity and a difference of 3 represents 1000-fold selectivity etc.

human beta1-adrenoceptor = target: T2, human beta1-adrenoceptor (Homo sapiens, UniProt P08588); experiment: 3H-CGP12177 whole-cell binding, beta1; conditions: for Kd / Beta 1 Log KD: 3H-CGP 12177 whole cell binding, CHO cells expressing human beta1-adrenoceptor, logarithmic value; for Kd: read-out: Beta 1 Log KD (converted); for Beta 1-Beta 2 Log KD (selectivity): difference of Log KD beta1 and beta2, 1 = 10-fold, 2 = 100-fold, 3 = 1000-fold selectivity
T2 construct: expressed in transfected cells; host or cells: CHO cells
Method: as §1, §2

β1-adrenoceptor = β1-adrenoceptor (Homo sapiens, UniProt P08588); conditions: background statement on known compounds; cited from earlier work
Chain of β1-adrenoceptor (P08588 whole entry, species assumed): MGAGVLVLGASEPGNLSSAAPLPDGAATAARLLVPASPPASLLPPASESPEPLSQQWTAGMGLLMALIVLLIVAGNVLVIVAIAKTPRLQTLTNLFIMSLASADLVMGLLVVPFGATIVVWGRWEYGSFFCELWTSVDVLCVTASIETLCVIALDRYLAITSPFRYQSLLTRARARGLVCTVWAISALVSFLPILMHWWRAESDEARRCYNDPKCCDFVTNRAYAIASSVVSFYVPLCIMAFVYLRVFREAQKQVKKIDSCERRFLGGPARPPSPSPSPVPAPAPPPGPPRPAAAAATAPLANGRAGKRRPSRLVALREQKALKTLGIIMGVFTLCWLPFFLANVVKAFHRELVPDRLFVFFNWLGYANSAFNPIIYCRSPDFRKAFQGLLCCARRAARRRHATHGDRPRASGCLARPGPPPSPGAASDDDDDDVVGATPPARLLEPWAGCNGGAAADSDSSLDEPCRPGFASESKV

T2 sequence (P08588 whole entry): as the sequence (P08588 whole entry, species assumed) above
T1 sequence (P07550 whole entry): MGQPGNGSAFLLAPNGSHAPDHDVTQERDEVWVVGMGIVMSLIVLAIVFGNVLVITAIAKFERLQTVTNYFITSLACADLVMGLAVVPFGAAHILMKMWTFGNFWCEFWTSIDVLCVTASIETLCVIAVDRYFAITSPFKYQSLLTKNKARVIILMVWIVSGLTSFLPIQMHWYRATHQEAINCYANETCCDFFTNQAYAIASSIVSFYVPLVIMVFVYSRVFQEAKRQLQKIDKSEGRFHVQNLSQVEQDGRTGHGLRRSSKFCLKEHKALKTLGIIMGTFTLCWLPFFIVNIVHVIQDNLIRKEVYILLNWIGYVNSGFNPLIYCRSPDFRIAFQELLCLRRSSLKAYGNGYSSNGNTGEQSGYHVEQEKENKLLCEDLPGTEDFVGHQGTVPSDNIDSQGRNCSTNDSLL

Row | Compound | melting point | Kd (human beta2-adrenoceptor) | Kd (human beta1-adrenoceptor) | Beta 1-Beta 2 Log KD (selectivity) (human beta1-adrenoceptor) | Beta 2 Log KD (human beta2-adrenoceptor) | Beta 1 Log KD (human beta1-adrenoceptor) | β1-selectivity (β1-adrenoceptor)
1 | NC(=O)c1ccc(OCCNC[C@H](O)COc2ccc(CCCN3CCC(F)(F)CC3)cc2)cc1 (as salt: hydrochloride) [Example 41, (S)-4-(2-(3-(4-(3-(4,4-difluoropiperidin-1-yl)propyl)phenoxy)-2-hydroxypropyl)amino)-ethoxy)benzamide dihydrochloride] | 234 to 235 °C | – | – | – | – | – | –
2 | COc1ccc(OCCNCC(O)COc2ccc(OCCOC3CCCC3)cc2)cc1 (racemic) [Example 3] | – | 759 nM | 7.41 nM | 2.01 | – | – | –
3 | NC(=O)c1ccc(OCCNCC(O)COc2ccc(OCCOC3CCCC3)cc2)cc1 (centres unmarked) [Example 1] | – | – | – | 2.40 | – | – | –
4 | NC(=O)c1ccc(OCCNC[C@H](O)COc2ccc(CCCOCC3CC3)cc2)cc1 [Example 8] | 132 to 135 °C | 1320 nM | 2.88 nM | 2.66 | – | – | –
5 | NC(=O)c1ccc(OCCNC[C@H](O)COc2ccc3c(c2)OC[C@@H](COCC2CC2)O3)cc1 [Example 11] | 136 to 138 °C | 10200 nM | 23.4 nM | 2.64 | – | – | –
6 | O[C@@H](CNCCOc1ccc2ncccc2c1)COc1ccc(CCCOCC2CC2)cc1 [Example 12] | 128 to 130 °C | 138 nM | 0.832 nM | 2.22 | – | – | –
7 | O[C@@H](CNCCOc1ccc2ncccc2c1)COc1ccc2c(c1)OC[C@@H](COCC1CC1)O2 [Example 14] | – | 1260 nM | 4.17 nM | 2.48 | – | – | –
8 | NC(=O)c1ccc(OCCNC[C@H](O)COc2ccc3c(c2)OC[C@@H](COC2CCCC2)O3)cc1 [Example 16] | 134 to 136 °C | 5010 nM | 6.17 nM | 2.91 | – | – | –
9 | NC(=O)c1ccc(OCCNC[C@H](O)COc2ccc(CCOCC3CC3)cc2)cc1 [Example 20] | – | – | – | 2.28 | −6.71 | −8.99 | –
10 | O[C@@H](CNCCOc1ccc2nccnc2c1)COc1ccc(CCCOCC2CC2)cc1 [Example 21] | – | 427 nM | 2.75 nM | 2.19 | – | – | –
11 | O=c1[nH]c2ccc(OCCNC[C@H](O)COc3ccc(CCCOCC4CC4)cc3)cc2[nH]1 [Example 22] | 183 to 185 °C | 1410 nM | 8.32 nM | 2.23 | – | – | –
12 | O=C1NCc2cc(OCCNC[C@H](O)COc3ccc4c(c3)OC[C@H](COc3ccc(F)cc3)O4)ccc21 [Example 26] | 161 to 164 °C | 2510 nM | 4.17 nM | 2.78 | – | – | –
13 | NC(=O)c1ccc(OCCNC[C@H](O)COc2ccc3cc(COCC4CC4)ccc3c2)cc1 [Example 28] | 148 to 150 °C | > 100000 nM | 117 nM | <2.93 | – | – | –
14 | O=C1NCc2cc(OCCNC[C@H](O)COc3ccc4cc(OCC5CC5)ccc4c3)ccc21 [Example 29] | 194 to 196 °C | > 100000 nM | 79.4 nM | <3.10 | – | – | –
15 | O=C1NCc2cc(OCCNC[C@H](O)COc3ccc4c(c3)OC[C@@H](COc3ccncc3)O4)ccc21 [Example 30] | 192 to 194 °C | 72400 nM | 57.5 nM | 3.10 | – | – | –
16 | O=C1NCc2cc(OCCNC[C@H](O)COc3ccc4c(c3)OC[C@@H](COc3ccc(OC(F)(F)F)cc3)O4)ccc21 [Example 34] | 188 to 189 °C | 7760 nM | 3.39 nM | 3.37 | – | – | –
17 | O=C1NCc2cc(OCCNC[C@H](O)COc3ccc4c(c3)OC[C@@H](COc3ccccc3F)O4)ccc21 [Example 35] | – | – | – | 3.70 | −4.98 | −8.68 | –
18 | O=C1NCc2cc(OCCNC[C@H](O)COc3ccc4c(c3)OC[C@@H](COc3c(F)cccc3F)O4)ccc21 [Example 38] | – | – | – | 3.34 | −5.20 | −8.54 | –
19 | NC(=O)c1ccc(OCCNC[C@H](O)COc2ccc(CCCN3CCC(F)(F)CC3)cc2)cc1 [Example 41, (S)-4-(2-(3-(4-(3-(4,4-difluoropiperidin-1-yl)propyl)phenoxy)-2-hydroxypropyl)amino)-ethoxy)benzamide dihydrochloride] | – | 1350 nM | 1.82 nM | 2.87 | – | – | –
20 | O=C1NCc2cc(OCCNC[C@H](O)COc3ccc(CCCN4CCC(F)(F)CC4)cc3)ccc21 [Example 42] | 132 to 133 °C | 407 nM | 1.95 nM | 2.32 | – | – | –
21 | O=C1NCc2cc(OCCNC[C@H](O)COc3ccc4c(c3)OC[C@@H](CN3CCC(F)(F)CC3)O4)ccc21 [Example 43, 5-(2-((S)-3-((R)-2-((4,4-difluoropiperidin-1-yl)methyl)-2,3-dihydrobenzo[b][1,4]-dioxin-6-yloxy)-2-hydroxypropylamino)ethoxy)isoindolin-1-one] | 134 to 135 °C | 2750 nM | 4.27 nM | 2.81 | – | – | –
22 | CC1(C)COc2cc(OC[C@@H](O)CNCCOc3ccc(C(N)=O)cc3)ccc2O1 [Example 44, (S)-4-(2-(3-(2,2-dimethyl-2,3-dihydrobenzo[b][1,4]dioxin-6-yloxy)-2-hydroxypropyl-amino)ethoxy)benzamide] | 101 to 103 °C | > 100000 nM | 316 nM | <2.50 | – | – | –
23 | NC(=O)c1ccc(OCCNC[C@H](O)COc2ccc(CCCOC3CC3)cc2)cc1 [Example 46] | – | – | – | 2.57 | −6.10 | −8.67 | –
24 | CCOCCOc1ccc(OC[C@@H](O)CNCCc2ccc(OC)c(OC)c2)cc1 [Example D-140S] | – | – | – | – | – | – | 4,400 fold
25 | N#Cc1cc(OCCOCC2CC2)ccc1OCC(O)CNCCNC(=O)Nc1ccc(O)cc1 (centres unmarked) [LK-204545] | – | – | – | – | – | – | 1,778 fold

Further lines, with some results ahead:

Row | melting point | Kd (human beta2-adrenoceptor) | Kd (human beta1-adrenoceptor) | Beta 1-Beta 2 Log KD (selectivity) (human beta1-adrenoceptor) | Beta 2 Log KD (human beta2-adrenoceptor) | Beta 1 Log KD (human beta1-adrenoceptor) | Compound | β1-selectivity (β1-adrenoceptor)
26 | 73 to 75 °C | 1050 nM | 11.5 nM | 1.96 | – | – | CN(C)C(=O)c1ccc(OCCNC[C@H](O)COc2ccc(OCCOC3CCCC3)cc2)cc1 [Example 6] | –
27 | 120 to 122 °C | 355 nM | 0.912 nM | 2.59 | – | – | NC(=O)c1ccc(OCCNC[C@H](O)COc2ccc(CCCOC3CCCC3)cc2)cc1 [Example 9] | –
28 | – | – | – | 2.3 | −6.53 | −8.83 | CC(=O)Nc1ccc(OCCNC[C@H](O)COc2ccc(CCCOCC3CC3)cc2)cc1 [Example 13] | –
29 | 123 to 125 °C | 4370 nM | 7.59 nM | 2.76 | – | – | CC(=O)Nc1ccc(OCCNC[C@H](O)COc2ccc3c(c2)OC[C@@H](COCC2CC2)O3)cc1 [Example 15] | –
30 | – | 4680 nM | 4.57 nM | 3.01 | – | – | O=C1NCc2cc(OCCNC[C@H](O)COc3ccc4c(c3)OC[C@@H](COCC3CC3)O4)ccc21 [Example 18] | –
31 | – | 347 nM | 0.794 nM | 2.64 | – | – | O=C1NCc2cc(OCCNC[C@H](O)COc3ccc4c(c3)OC[C@@H](COc3ccc(F)cc3)O4)ccc21 [Example 25] | –
32 | – | 2000 nM | 2.82 nM | 2.85 | – | – | O=C1NCc2cc(OCCNC[C@H](O)COc3ccc4c(c3)OC[C@@H](COc3cccc(F)c3)O4)ccc21 [Example 33] | –
33 | 182 to 184 °C | 6310 nM | 2.69 nM | 3.37 | – | – | COc1c(F)cc(OC[C@@H]2COc3cc(OC[C@@H](O)CNCCOc4ccc5c(c4)CNC5=O)ccc3O2)cc1F [Example 37] | –
34 | 146 to 148 °C | 871 nM | 1.07 nM | 2.91 | – | – | Cc1ccccc1OC[C@@H]1COc2cc(OC[C@@H](O)CNCCOc3ccc4c(c3)CNC4=O)ccc2O1 [Example 39] | –
35 | 145 to 147 °C | 1620 nM | 3.24 nM | 2.70 | – | – | COc1ccc(OCC2COc3cc(OCC(O)CNCCOc4ccc5c(c4)CNC5=O)ccc3O2)c(F)c1 (centres unmarked) [Example 40] | –
36 | – | – | – | 2.65 | −6.52 | −9.17 | O=C1NCc2cc(OCCNC[C@H](O)COc3ccc(CCCOC4CC4)cc3)ccc21 [Example 45] | –
